From patent US20110318272A1, “PESTICIDAL MIXTURES GIVING S[…]” (priority 2010, published 2011)
“Also recorded” adds a separate entry of the source. Like-named read-outs stand apart in the source and are kept apart here.

Key:
Myzus persicae = settings: for Concentration effect ca LD25 3DAA: M. persicae; for pesticidal activity against M. persicae, product alone in mixture study: alone at rate taken as ca. LD25 (BUGOIL 10 mL/L, imidacloprid 0.1, indoxacarb 100, spinosad 1 g (a.i.)/ha); for aphicidal activity against M. persicae when applied alone: range-finding assay
Method: Test arenas consisted of excised leaf discs of the host plant infested with the target organism.
Test arenas consisted of excised leaf discs of the host plant Brassica rapa chinensis infested with the target organism, Myzus persicae. A track sprayer was used to spray the test solutions at an application volume of 200 L/ha. Assessment of mortality (survival), any other sub lethal effects and phytotoxicity were carried out at 24 hours and 72 hours post application (3DAA).

Tetranychus urticae = assay: Leaf disc track-sprayer bioassay against red spider mite; format: in vivo; settings: for Concentration effect ca LD25 3DAA / Concentration effect ca LD50 3DAA: T. urticae; for activity against T. urticae when applied alone: range-finding assay
Method: Test arenas consisted of excised leaf discs of the host plant Phaseolus vulgaris infested with the target organism, Tetranychus urticae. A track sprayer was used to spray the test solutions at an application volume of 200 L/ha. Assessment of mortality (survival), any other sub lethal effects and phytotoxicity were carried out at 24 hours and 72 hours post application (3DAA).

Spodoptera litura = assay: Field study, cutworm on eggplant; format: in vivo; settings: 7 DAA
Method: (§1) For the field experiments described in Examples 14-16, the numbers of target organisms on host plants were assessed before treatment and after treatment.
(§2) Field studies as described below were carried out to determine the efficacy of BUGOIL®, lambda cyhalothrin, imidacloprid, and abamectin, alone and in mixtures with BUGOIL®, for control of the whitefly Bemisia tabaci, the leafhopper Empoasca biggutula, the aphid Aphis gosspyii, the shoot/fruit borer Leucinodes orbonalis and the cutworm Spodoptera litura on the eggplant cultivar “Casino” (Solanum melongena cv Casino). In the following studies, the dose (N) is the label dose for each product, expressed in concentration (grams active ingredient) per liter of spray mixture (a.i.)/l).
Lambda cyhalothrin is formulated as Karate® (KARATE® with Zeon Technology, Syngenta Phillipines, Inc., Batch No. JAK8,18179, Production Date Nov. 11, 2008, Phillipines Department of Agriculture, Fertilizer and Pesticides Authority (FPA) Reg. No. 011-204-0396), where the dose prior to dilution=N=label dose=0.8 g (a.i.)/l (rated adapted to lepidopterian and leafhopper pests).
(§3) Imidacloprid is formulated as CLIMAX® (CLIMAX® 200 SL, Bayer CropScience, Inc., Batch No. 81001025, Production Date Feb. 22, 2005, FPA Reg. No. 284-240-0761 where the dose prior to dilution=N=label dose=0.15 g (a.i.)/l.
(§4) Abamectin is formulated as AGRI-MEK® (AGRI-MEK® 1.8 EC, Syngenta Phillipines, Inc., FPA Reg. No. 011-234-0791), where the dose prior to dilution=N=label dose=0.018 g (a.i.)/l.

Trialeurodes sp. = assay: Field study, adult whitefly on zucchini; format: in vivo; settings: FIG. 12, imidacloprid alone at N/2 dilution
Method: as §1
Field studies as described below were carried out to determine the efficacy of BUGOIL® alone, lambda cyhalothrin alone, imidacloprid alone, abamectin alone, and mixtures of BUGOIL® with lambda cyhalothrin, imidacloprid, or abamectin, for control of adult whiteflies of different whitefly species, on zucchini and cucumber. In the following studies, the dose (N) is the label dose for each product, expressed in concentration (grams active ingredient) per liter of spray mixture (a.i.)/1).

Empoasca biggutula = assay: Field study, leafhopper on eggplant; format: in vivo
Method: as §1, §2, §3, §4

Bemisia tabaci = assay: Field study, adult whitefly on eggplant; format: in vivo; settings: over a 14 day test period, product alone
Method: as §1, §2, §3

[1] = tested on: sucking insect pests (whitefly, leafhoppers and aphids); assay: Field study, sucking insect pests on eggplant; format: in vivo; settings: abamectin as AGRI-MEK 1.8 EC, mixtures at reduced rates, sucking insect and lepidopteran pests
Method: as §1, §2

[2] = 72 hours, *not necessarily at the LD25 level, little or no response to the dose range
[3] = 72 hours, *not necessarily at the LD50 level, little or no response to the dose range
[4] = alone at recommended application rate (N)

COC(=O)N(C(=O)N1CO[C@@]2(C(=O)OC)Cc3cc(Cl)ccc3C2=N1)c1ccc(OC(F)(F)F)cc1 [indoxacarb, methyl (4aS)-7-chloro-2,5-dihydro-2-[[(methoxycarbonyl)[4-(trifluoromethoxy)phenyl]amino]carbonyl] indeno[1,2-e][1,3,4]oxadiazine-4a(3H)-carboxylate]
Concentration effect ca LD25 3DAA (Myzus persicae; [2]): ~100 g a.i./ha | pesticidal activity against M. persicae, product alone in mixture study (Myzus persicae; 72 hours): did not have measurable pesticidal activity | aphicidal activity against M. persicae when applied alone (Myzus persicae; 72 hours): little aphicidal activity | Concentration effect ca LD25 3DAA (Tetranychus urticae; [2]): ~100 g a.i./ha | Concentration effect ca LD50 3DAA (Tetranychus urticae; [3]): ~400 g a.i./ha | activity against T. urticae when applied alone (Tetranychus urticae; 72 hours): minimal activity; also recorded: not shown to be active

O=[N+]([O-])NC1=NCCN1Cc1ccc(Cl)nc1 [imidacloprid, (2E)-1-[(6-chloro-3-pyridinyl)methyl]-N-nitro-2-imidazolidinimine]
control of cutworm, S litura (Spodoptera litura; [4]): around 60% | Concentration effect ca LD25 3DAA (Myzus persicae; 72 hours after application): ~0.1 g a.i./ha | mortality rates (Myzus persicae; range finder assay, concentrations of 1 g a.i./ha and above): greater than 90% | aphicidal activity against M. persicae when applied alone (Myzus persicae; 72 hours): active | Concentration effect ca LD25 3DAA (Tetranychus urticae; [2]): ~100 g a.i./ha | Concentration effect ca LD50 3DAA (Tetranychus urticae; [3]): ~400 g a.i./ha | activity against T. urticae when applied alone (Tetranychus urticae; 72 hours): minimal activity | control of adult whiteflies (Trialeurodes sp.): 30-40% | control of leafhoppers (Empoasca biggutula; 1 HAA, imidacloprid alone at half the normal rate (½ N)): 37% | control of adult whitefly, B. tabaci (Bemisia tabaci): ≤ 50%

CC1(C)[C@H](C(=O)O[C@H](C#N)c2cccc(Oc3ccccc3)c2)[C@@H]1/C=C(\Cl)C(F)(F)F (racemic) [lambda-cyhalothrin, Lambda-cyhalothrin]
control of cutworm, S litura (Spodoptera litura; [4]): around 60% | Concentration effect ca LD25 3DAA (Myzus persicae; 72 hours after application): ~0.01 g a.i./ha | aphicidal activity against M. persicae when applied alone (Myzus persicae; 72 hours): high aphicidal activity | pesticidal activity against T. urticae in mixture study (Tetranychus urticae; FIG. 4B, BUGOIL at ca. LD25 (5 mL/L), lambda-cyhalothrin at ca. LD25 (0.05 g (a.i.)/ha), mixtures Treatments 3, 4, 5, 7, 8, 72 hours): showed pesticidal activity | Concentration effect ca LD25 3DAA (Tetranychus urticae; 72 hours after application): ~0.05 g a.i./ha | Concentration effect ca LD50 3DAA (Tetranychus urticae; 72 hours after application): ~0.1 g a.i./ha | activity against T. urticae when applied alone (Tetranychus urticae; 72 hours): active

Spinosad
Concentration effect ca LD25 3DAA (Myzus persicae; [2]): ~10 g a.i./ha | pesticidal activity against M. persicae, product alone in mixture study (Myzus persicae; 72 hours): no measurable pesticidal activity | aphicidal activity against M. persicae when applied alone (Myzus persicae; 72 hours): variable aphicidal activity | Observed mean % mortality of T urticae (Tetranychus urticae; 10 g spinosad/L alone): 8% | Concentration effect ca LD25 3DAA (Tetranychus urticae; 72 hours after application): ~10 g a.i./ha | Concentration effect ca LD50 3DAA (Tetranychus urticae; 72 hours after application): ~50 g a.i./ha | activity against T. urticae when applied alone (Tetranychus urticae; 72 hours): a dose response to spinosad was observed

Abamectin
control of cutworm, S litura (Spodoptera litura; abamectin alone): 70% | Concentration effect ca LD25 3DAA (Myzus persicae; 72 hours after application): ~5 g a.i./ha | mortality rate (Myzus persicae; applied as VERTAN at LD25 (5 g (a.i.)/ha) or above, 72 hours): ~100% | aphicidal activity against M. persicae when applied alone (Myzus persicae; 72 hours): active | Observed mean % mortality of T urticae (Tetranychus urticae; 0.25 g abamectin/L alone): 10% | Concentration effect ca LD25 3DAA (Tetranychus urticae; 72 hours after application): ~0.025 g a.i./ha | Concentration effect ca LD50 3DAA (Tetranychus urticae; 72 hours after application): ~0.040 g a.i./ha | Concentration effect ca LD50 3DAA (Tetranychus urticae; 72 hours after application, listed as Abamectin (Vertan)): ~0.04 g a.i./ha | activity against T. urticae when applied alone (Tetranychus urticae; 72 hours): active | control of leafhopper E. biggutula (Empoasca biggutula; 3 days after application 1, BUGOIL alone at 5 mL/L): 78% | control of leafhopper E. biggutula (Empoasca biggutula; 3 days after application 2, BUGOIL alone at 5 mL/L): 66% | control of leafhopper E. biggutula (Empoasca biggutula; 3 days after application 3, BUGOIL alone at 5 mL/L): 49% | control of leafhopper E biggutula (Empoasca biggutula; single application, 3 days after application): around 80% | control of eggplant pests [1]: good effects
